Columns and labels:
[1] = system: CD44high/CD24low population in mammospheres from SUM-159PT cells; assay: CSCs phenotype assay (CD44/CD24 flow cytometry); type: cell-based; settings: 4 µM
Experimental: (§1) Cells were treated with B591 for 24 h, then the cell suspension was incubated with 20 μl of CD44-APC (#559942, BD Pharmingen, Franklin Lakes, NJ, USA) and 20 μl of CD24-PE (#555428, BD Pharmingen) antibodies for 30 min in dark at 4 ℃. Phenotype was detected by BD FACSCalibur, and data was analyzed with Flowjo. ALDH activity was analyzed with ALDEFLUOR Kit (STEMCELL Technologies, Vancouver, BC, Canada) according to the manufacture’s protocol.

[2] = system: ALDHhigh fractions in SUM-159PT cells; assay: ALDH activity assay (ALDEFLUOR); type: cell-based; settings: 4 µM
Experimental: as §1

[3] = system: CHO cells stably expressing EGFP-Akt1; assay: Akt1 redistribution (IGF-1-stimulated membrane translocation of EGFP-Akt1); type: cell-based
From the text: Growth factors such as insulin-like growth factor 1 (IGF-1) and cytokines such as interleukin-6 stimulate and activate PI3K, leading to a subsequent increase of plasma membrane translocation and phosphorylation of Akt. Activated Akt promotes cell survival, cell growth and proliferation in human cancers.
Fig. 2 B591 inhibits PI3K/Akt pathway in multiple cancer cell lines. a Representative images of Akt1 redistribution in IGF-1-treated cells in the absence or presence of B591. Scale bar represents 10 μm. Arrows indicate IGF-1-mediated membrane translocation detected by the image analysis algorithm. b Inhibition of mTORC1 and mTORC2 signaling in multiple cancer cell lines, exposed for 5 h to increasing concentrations of B591. c HepG2 cells were treated with DMSO or 20 μM of B591 for 5 h. Immunofluorescence (red) intensity reflects eIF4E subcellular distribution. Cells were visualized with high content reader. Representative images are shown, and scale bar represents 50 μm. d Nuclear-to-cytoplasmic ratio of eIF4E in five cancer cell lines was determined via high content reader. e The phosphorylation of AKT and ERK was determined by immunoblotting in RD cells in the presence of 10 μM of B591 after indicated time of exposure. f Inhibition of the phosphorylation of AKT and ERK in RD cells treated with B591, PI-103 or Rapamycin for 24 h was determined by immunoblotting […]

[4] = system: SUM-159PT orthotopic xenografts; assay: Tumor recurrence study in SUM-159PT xenografts; type: in vivo, NOD/SCID mice; settings: B591 10 mg/kg
Experimental: Fig. 6 B591 reduces breast tumor metastasis and recurrence. a Representative images show the effect of B591 (8 mg/kg) on lung metastasis of 4T1 cells, and data from six mice were plotted. b SUM-159PT cells were respectively treated with the indicated agents (8 nM Paclitaxel, 8 nM Paclitaxel plus 5 μM B591) for 24 h, the cells were then cultured for mammospheres. Representative images were shown, and data from two independent experiments were plotted. c–f SUM-159PT xenografts (n = 7) were treated with 4 mg/kg Paclitaxel, or 10 mg/kg B591, or both for 2 weeks, then ended the treatment and waited for tumor recurrence. Tumor volume (c) and body weight (d) were measured every 2 days after treatment, and tumors were photographed (e) and weighted (f) at the end of the experiment. ^*p < 0.05, ^**p < 0.01 versus indicated groups
In the tumor recurrence study, orthotopic xenografts were established with 5 × 10^6 SUM-159PT cells. When tumor volume reached about 50 mm^3, mice were randomly divided into four groups for treatment with vehicle, 4 mg/kg Paclitaxel, 10 mg/kg B591, and combination of 4 mg/kg Paclitaxel plus 10 mg/kg B591 (i.p.). Treatment was stopped after 2 weeks, and the tumors were allowed for recurrence for 3 weeks. Tumor volume and the body weight of mice were measured during the experiments. In the end of treatment, the mice were killed, and the tumor tissues were dissected and weighted.

[5] = system: primary tumor cells dissociated from MDA-MB-231 xenografts replanted into NOD/SCID mice; assay: Limiting dilution assay of cells from treated MDA-MB-231 xenografts; type: in vivo; settings: for number of tumor-bearing mice (number of recipient mice): cells from 16 mg/kg group, 3 months later
Experimental: Fig. 5 B591 abolishes tumor growth in vivo by eliminating CSCs. a MDA-MB-231 xenografts were treated with vehicle or B591 for 2 weeks, then the residual tumor tissue was harvested and dissociated into single cells for subsequent CSCs assays according with the flow chart. b–d Tumor weight and mice body weight were measured every 2 days during treatment. In the end of treatment, tumor tissues were collected and weighted (n = 8). e The CSCs markers of tumor cells were analyzed by flow cytometry. Only the live and non-mouse cell population was gated and analyzed. Data from three mice were plotted. f Mammosphere formation assay was carried out with the single cells. The relative mammosphere-formation ability is shown as percentage, and data represent mean ± SD. g The single cells from vehicle and 16 mg/kg of B591 group were replanted into NOD/SCID mice according to the indicating number, and 3 months later, tumors were counted for calculating the tumor-initiating frequency. h The CSCs markers and the downstream substrates of PI3K pathway were analyzed using the lysates from the primary xenografts by western blot analysis. ^**p < 0.01, difference versus vehicle-treated control group TEXT PRINTED IN THE PICTURE: (G) B591: 3(5) (Cell number: 200 000); 2(5) (Cell number: 20 000); 0(5) (Cell number: 2 000); 0(5) (Cell number: 200); TIF: 1/145 000
The primary tumor cells dissociated from xenografts were injected into the mammary fat pad of NOD/SCID mice in limiting dilutions.
In MDA-MB-231 xenografts experiment, 1 × 10^6 cells were incubated into the mammary fat pad of mice orthotopically. When the volume of tumor reached above 50 mm^3, the mice were randomly divided into three groups for introperitoneal (i.p.) injection with vehicle, 4 mg/kg and 16 mg/kg B591. The tumor volume and the body weight of mice were measured during the 2-weeks treatment. In the end of treatment, the mice were killed, and the tumor tissues were dissected and dissociated into single cell suspension with Dispase II (Roche, Basel, Switzerland) according with the manufacture’s protocol. Then these single cells were used for CSCs phenotype assay, ALDH activity assay, mammosphere formation assay and limiting dilution assay in vivo as described above.

For `Cc1cc2c(cc1C)[n+](Cc1ccccc1Br)cn2Cc1ccc2c(c1)CCO2.[Br-]` [B591, 3-(2-bromobenzyl)-1-((2,3-dihydrobenzofuran-5-yl)methyl) -5,6-dimethyl-1H-benzo[d]imidazol-3-ium bromide], the “Decrease of CD44high/CD24low population” value [1] was 82%, the “Reduction of ALDHhigh fractions” value [2] was 90% and the “IGF-1-stimulated translocation of Akt to the plasma membrane” value [3] was “potently prevented this translocation event in a concentration-dependent manner”. The Body weight ([4]; with or without paclitaxel 4 mg/kg) was “no significant body weight loss”, the “Tumor growth and regrowth after end of treatment” value ([4]; paclitaxel 4 mg/kg, i.p., 2 weeks, then 3 weeks recurrence) was “significant inhibition of tumor growth and notably delayed the relapse of breast cancer following cessation of paclitaxel treatment” and the “number of tumor-bearing mice (number of recipient mice)” value (shortened to “number of tumor-bearing mice”) ([5]; cell number 2 000) was 0(5). For the same compound, the “number of tumor-bearing mice” value ([5]; cell number 20 000) was 2(5), the “number of tumor-bearing mice” value ([5]; cell number 200 000) was 3(5) and the “number of tumor-bearing mice” value ([5]; cell number 200) was 0(5). The “Reduction of tumor-initiating frequency versus vehicle” value ([5]; cells from B591-treated tumors) was “sevenfold reduction”.
